# Results as given in US8895579B2, “Heterotricyclic AMPA receptor antagonists for treatment of epilepsy, pain, and other neurological disorders and diseases” (Northwestern University, priority 2010, dated 2014).
# “And” between values parts separate entries of the source, which are not always exact repeats. Identical values can stand only once. Like-named read-outs stand apart in the source and are kept apart here.
# How the values were obtained:
# [1] = target: T1, homomeric GluA3 AMPA receptor (Rattus norvegicus, UniProt P19492); assay: Whole-cell patch clamp of recombinant GluA3 receptors in HEK293-T/17 cells; assay type: cell-based; details: 30 μM; 10 mM glutamate
# T1 construct: expressed in transfected cells; host or cells: HEK293-T/17 (CRL-11268)
# Protocol: (§1) Cell Culture and Transfection. Human embryonic kidney cells expressing T-antigen, clone 17 (HEK293-T/17) (CRL-11268) were cultured at 37° C. with 5% CO2 in DMEM, including 100 μg/mL penicillin, 100 μg/mL streptomycin, and 10% heat-inactivated fetal bovine serum. Cells were split twice per week. For transfection, HEK293-T/17 cells were plated at 3×10^4 cells/cm^2 for pharmacology experiments and 5×10^3 cells/cm^2 for physiology experiments in fresh medium 24 h prior to transfection. Cells were transfected with AMPA or KA receptor plasmid cDNAs using Mirus Trans-IT transfection reagent (Minus Bio Corporation, Madison, Wis.) at a ratio of 1 μg cDNA: 3 μL Trans-1T reagent and maintained in transfection medium overnight followed by a media change the next day. Transfected cells were maintained in this medium until the experiment was conducted (48-72 h total post transfection).
# (§2) Electrophysiology. For analysis of recombinant receptors, HEK293-T/17 cells were co-transfected with 0.2 μg of iGluR cDNA and 0.05 μg of eGFP. For heterologous GluA1/GluA2 receptors, the GluA1:GluA2 cDNA ratio was 1:6. Two to three days post-transfection, eGFP-expressing cells were lifted from the cover slip and voltage clamped in whole cell mode. […]
# [2] = target: T2, homomeric GluA1 AMPA receptor (Rattus norvegicus, UniProt P19490); assay: Whole-cell patch clamp of recombinant GluA1 receptors in HEK293-T/17 cells; assay type: cell-based; details: 30 μM; 10 mM glutamate
# T2 construct: expressed in transfected cells; host or cells: HEK293-T/17 (CRL-11268)
# Protocol: as §1, §2
# GluA4 = target: T3, GluA4 (Rattus norvegicus, UniProt P19493); assay: [3H]-AMPA radioligand binding, membranes of HEK293-T/17 cells expressing GluA4; details: 100 μM
# T3 construct: expressed in transfected cells; host or cells: HEK293-T/17 (CRL-11268)
# Protocol: Radioligand binding. HEK293-T/17 cells were transfected with 5 μg of iGluR cDNA in 100 mm^2 culture dishes. Two days post transfection, the plates were washed twice with ice-cold Dulbecco's phosphate-buffered saline (DPBS) and then incubated with 50 mM Tris (pH 7.4) and 1 mM EDTA for three minutes on ice. Cells were collected and centrifuged for five minutes at 800 g at room temperature. The cell pellet was homogenized in 50 mM Tris (pH 7.4) containing 320 mM sucrose (homogenization buffer, HB) on ice using a glass dounce homogenizer and centrifuged at 4° C. for 10 minutes at 800 g. The supernatant, containing the membrane fragments, was saved and the remaining pellet containing nuclei and unbroken cells was resuspended in HB. This homogenization process was repeated two more times and after collection of the final resulting supernatant, the remaining pellet was discarded. The collected supernatants were centrifuged at 4° C. for 20 minutes at 20000 g and the resulting supernatant was discarded leaving a membrane-containing pellet. The pellets were resuspended in freshly prepared binding buffer containing (in mM) 50 Tris (pH 7.2), 2.5 CaCl2, 10% glycerol and 100 KSCN (for AMPA receptors) or exclusively 50 Tris (pH 7.4) (for kainate receptors). Membrane protein (50-100 μg) was combined with radiolabeled ligand (10 nM [^3H]-KA or 20 nM [^3H]-AMPA for kainate receptor and AMPA receptor binding, respectively), alone or with 100 μM of IKM-159, and then incubated for 1 h at 4° C. Non-specific binding was determined as the amount of radioligand bound in the presence of a saturating concentration of glutamate (1 mM). Total binding was determined as the amount of radioligand bound in the absence of any competing ligands minus the non-specific binding. […] Data were presented as a percentage of the total binding. All experimental conditions were performed in duplicate in each assay and then averaged for each trial.
# [3] = target: T4, heteromeric GluA1/GluA2 AMPA receptor (Rattus norvegicus, UniProt P19490+P19491); assay: Whole-cell patch clamp of recombinant GluA1/GluA2 receptors in HEK293-T/17 cells; assay type: cell-based
# T4 construct: expressed in transfected cells; host or cells: HEK293-T/17 (CRL-11268)
# Protocol: as §1
# (§3) Electrophysiology. For analysis of recombinant receptors, HEK293-T/17 cells were co-transfected with 0.2 μg of iGluR cDNA and 0.05 μg of eGFP. For heterologous GluA1/GluA2 receptors, the GluA1:GluA2 cDNA ratio was 1:6. Two to three days post-transfection, eGFP-expressing cells were lifted from the cover slip and voltage clamped in whole cell mode. The internal solution contained (in mM) 30 CsF, 110 CsCl, 10 HEPES, 4 NaCl, 5 EGTA and 0.5 CaCl2 (pH 7.3), while the extracellular solution contained (in mM) 140 NaCl, 10 glucose, 10 Cs-HEPES, 3 KCl, 2 CaCl2 and 1 MgCl2 (pH 7.3). Borosilicate patch electrodes were pulled and fire polished to 2-3 MO resistance. Lifted cells were maintained in a laminar stream of extracellular solution from a triple-barreled flow pipe, which was rapidly translated using a piezoceramic bimorph for fast application of glutamate or kainate alone or in combination with various antagonists (the 10-90% rise time of glutamate-evoked currents was ˜1 ms). IKM compounds were applied for three minutes with analysis performed on the final one minute of drug application.
# Statistical analysis. At least three separate experiments were performed for each assay. […]
# [4] = target: T5, recombinant homomeric GluA4 AMPA receptor (Rattus norvegicus, UniProt P19493); assay: Whole-cell patch clamp of recombinant GluA4 receptors in HEK293-T/17 cells; assay type: cell-based; details: for inhibition at 30 µM: HEK293T/17, 30 μM
# T5 construct: expressed in transfected cells; host or cells: HEK293-T/17 (CRL-11268)
# Protocol: as §1, §3
# Statistical analysis. At least three separate experiments were performed for each assay. For data involving three or more groups, a one-way analysis of variance (ANOVA) was performed with a Tukey-Kramer post hoc test for comparison amongst the groups. For data involving two groups, an unpaired student's t-test was performed; if the standard deviations between the two groups were statistically significant, a Welsh correction was added. If the data involving three or more groups or data involving two groups where multiple treatments were performed on the same sample, a repeated measures ANOVA and paired t-test were used, respectively, for analysis of significance. Dose-inhibition response curves were fitted, with the maximum value constrained to 100 and the minimum value constrained to values greater than or equal to zero, using the following equation in order to calculate the IC50 values: Response=minimum+(maximum−minimum)/(1+(IC50^hill slope/dose^hillslope)) All calculations for statistical analysis were carried out with Graphpad Prism4 software (La Jolla, Calif.). Data are presented as mean±S.E.M. with statistical significance set at p<0.05.
# GluA2 = target: T6, GluA2 (Rattus norvegicus, UniProt P19491); assay: [3H]-AMPA radioligand binding, membranes of HEK293-T/17 cells expressing GluA2; details: 100 μM; 20 nM [3H]-AMPA; 1 h at 4° C.
# T6 construct: expressed in transfected cells; host or cells: HEK293-T/17 (CRL-11268), membranes
# Protocol: (§4) Radioligand binding. HEK293-T/17 cells were transfected with 5 μg of iGluR cDNA in 100 mm^2 culture dishes. Two days post transfection, the plates were washed twice with ice-cold Dulbecco's phosphate-buffered saline (DPBS) and then incubated with 50 mM Tris (pH 7.4) and 1 mM EDTA for three minutes on ice. Cells were collected and centrifuged for five minutes at 800 g at room temperature. The cell pellet was homogenized in 50 mM Tris (pH 7.4) containing 320 mM sucrose (homogenization buffer, HB) on ice using a glass dounce homogenizer and centrifuged at 4° C. for 10 minutes at 800 g. The supernatant, containing the membrane fragments, was saved and the remaining pellet containing nuclei and unbroken cells was resuspended in HB. This homogenization process was repeated two more times and after collection of the final resulting supernatant, the remaining pellet was discarded. The collected supernatants were centrifuged at 4° C. for 20 minutes at 20000 g and the resulting supernatant was discarded leaving a membrane-containing pellet. […] Non-specific binding was determined as the amount of radioligand bound in the presence of a saturating concentration of glutamate (1 mM). Total binding was determined as the amount of radioligand bound in the absence of any competing ligands minus the non-specific binding. […]
# GluK2a = target: T7, GluK2a (Rattus norvegicus, UniProt P42260); assay: [3H]-KA radioligand binding, membranes of HEK293-T/17 cells expressing GluK2a; details: 10 nM [3H]-KA, 1 h at 4° C., read-out: [3H]KA bound as percent of total (specific) binding in absence of competing ligand
# T7 construct: myc; expressed in transfected cells; host or cells: HEK293-T/17 (CRL-11268)
# Protocol: as §4
# GluA1 = target: T8, GluA1 (Rattus norvegicus, UniProt P19490); assay: [3H]-AMPA radioligand binding, membranes of HEK293-T/17 cells expressing GluA1; details: 100 μM; 20 nM [3H]-AMPA; 1 h at 4° C.
# T8 construct: expressed in transfected cells; host or cells: HEK293-T/17 (CRL-11268)
# Protocol: as §4
# T4 sequence (P19490 19-907 isoform P19490-2 limits assumed): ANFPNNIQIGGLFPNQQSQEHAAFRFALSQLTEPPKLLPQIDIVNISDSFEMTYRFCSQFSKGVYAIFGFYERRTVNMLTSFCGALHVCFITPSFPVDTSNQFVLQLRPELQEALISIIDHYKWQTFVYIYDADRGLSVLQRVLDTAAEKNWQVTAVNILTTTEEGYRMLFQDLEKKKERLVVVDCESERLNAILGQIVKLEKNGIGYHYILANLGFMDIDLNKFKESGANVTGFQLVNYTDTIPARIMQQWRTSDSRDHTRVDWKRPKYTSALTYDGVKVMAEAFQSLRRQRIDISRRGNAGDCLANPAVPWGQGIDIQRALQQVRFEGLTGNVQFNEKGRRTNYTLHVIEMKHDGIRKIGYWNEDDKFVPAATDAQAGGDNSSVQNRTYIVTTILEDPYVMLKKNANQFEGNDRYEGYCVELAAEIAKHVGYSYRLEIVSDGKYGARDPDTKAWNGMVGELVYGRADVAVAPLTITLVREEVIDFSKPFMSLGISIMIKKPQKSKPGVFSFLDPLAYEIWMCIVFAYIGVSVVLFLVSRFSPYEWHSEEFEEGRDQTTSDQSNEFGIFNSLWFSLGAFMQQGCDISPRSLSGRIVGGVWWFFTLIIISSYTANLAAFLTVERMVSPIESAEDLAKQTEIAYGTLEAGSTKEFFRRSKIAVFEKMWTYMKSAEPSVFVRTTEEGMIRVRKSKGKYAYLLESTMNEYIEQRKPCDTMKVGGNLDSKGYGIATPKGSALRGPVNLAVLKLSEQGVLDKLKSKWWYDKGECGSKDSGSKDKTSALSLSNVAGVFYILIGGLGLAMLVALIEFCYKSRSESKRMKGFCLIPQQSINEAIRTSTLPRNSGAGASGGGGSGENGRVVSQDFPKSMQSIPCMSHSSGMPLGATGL
# T4 sequence (P19491 22-883 isoform P19491-2 limits assumed): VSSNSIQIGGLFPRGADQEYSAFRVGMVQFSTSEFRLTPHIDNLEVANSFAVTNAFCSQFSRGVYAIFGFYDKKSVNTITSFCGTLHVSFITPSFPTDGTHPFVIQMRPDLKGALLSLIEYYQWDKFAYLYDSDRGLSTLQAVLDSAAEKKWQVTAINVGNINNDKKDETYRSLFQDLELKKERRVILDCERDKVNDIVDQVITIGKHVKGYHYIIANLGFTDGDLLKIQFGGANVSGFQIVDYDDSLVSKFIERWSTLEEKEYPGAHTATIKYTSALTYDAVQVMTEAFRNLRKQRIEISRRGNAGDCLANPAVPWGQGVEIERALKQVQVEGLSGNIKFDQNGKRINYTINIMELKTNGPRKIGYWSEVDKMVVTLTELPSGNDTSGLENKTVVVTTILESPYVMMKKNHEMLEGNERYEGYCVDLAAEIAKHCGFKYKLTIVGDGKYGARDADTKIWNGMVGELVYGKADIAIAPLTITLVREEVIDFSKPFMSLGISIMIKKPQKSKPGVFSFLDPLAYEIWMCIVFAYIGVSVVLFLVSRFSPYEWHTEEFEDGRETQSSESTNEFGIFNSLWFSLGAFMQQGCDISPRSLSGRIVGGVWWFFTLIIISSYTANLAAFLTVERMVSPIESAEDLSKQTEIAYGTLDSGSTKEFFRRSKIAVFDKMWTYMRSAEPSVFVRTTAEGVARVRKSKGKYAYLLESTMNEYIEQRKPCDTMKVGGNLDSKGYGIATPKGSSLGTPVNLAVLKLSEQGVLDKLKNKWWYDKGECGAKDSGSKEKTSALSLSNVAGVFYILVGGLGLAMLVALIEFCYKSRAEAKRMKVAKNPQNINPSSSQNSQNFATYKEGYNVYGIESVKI
# T5 sequence (P19493 21-902 isoform P19493-2 limits assumed): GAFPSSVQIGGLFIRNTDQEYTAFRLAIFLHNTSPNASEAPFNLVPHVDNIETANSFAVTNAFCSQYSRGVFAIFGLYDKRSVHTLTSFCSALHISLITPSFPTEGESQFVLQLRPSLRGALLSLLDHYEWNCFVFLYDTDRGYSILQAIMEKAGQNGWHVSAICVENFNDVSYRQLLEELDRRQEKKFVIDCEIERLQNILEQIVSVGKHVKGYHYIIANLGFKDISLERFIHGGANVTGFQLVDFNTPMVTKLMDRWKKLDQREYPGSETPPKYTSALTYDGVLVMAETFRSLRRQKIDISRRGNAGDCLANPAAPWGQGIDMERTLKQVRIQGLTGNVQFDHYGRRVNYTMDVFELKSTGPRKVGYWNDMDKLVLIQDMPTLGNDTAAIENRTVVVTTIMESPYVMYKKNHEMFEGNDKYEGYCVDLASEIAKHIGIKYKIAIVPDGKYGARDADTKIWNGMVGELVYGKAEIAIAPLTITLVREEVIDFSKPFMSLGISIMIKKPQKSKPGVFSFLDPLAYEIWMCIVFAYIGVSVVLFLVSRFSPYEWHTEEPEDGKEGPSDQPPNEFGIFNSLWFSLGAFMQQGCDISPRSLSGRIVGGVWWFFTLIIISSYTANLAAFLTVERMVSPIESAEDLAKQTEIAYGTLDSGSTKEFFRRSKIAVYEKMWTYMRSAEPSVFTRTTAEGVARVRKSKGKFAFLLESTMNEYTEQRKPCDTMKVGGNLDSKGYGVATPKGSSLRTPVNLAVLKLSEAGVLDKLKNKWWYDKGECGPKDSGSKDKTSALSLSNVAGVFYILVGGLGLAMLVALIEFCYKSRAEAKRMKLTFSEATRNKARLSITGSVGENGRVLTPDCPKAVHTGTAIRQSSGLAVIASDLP
# T3 sequence (P19493 21-902 isoform P19493-2 limits assumed): as above
# T8 sequence (P19490 19-907 isoform P19490-2 limits assumed): as the sequence (P19490 19-907 isoform P19490-2 limits assumed) above
# T1 sequence (P19492 23-888 isoform P19492-2 limits assumed): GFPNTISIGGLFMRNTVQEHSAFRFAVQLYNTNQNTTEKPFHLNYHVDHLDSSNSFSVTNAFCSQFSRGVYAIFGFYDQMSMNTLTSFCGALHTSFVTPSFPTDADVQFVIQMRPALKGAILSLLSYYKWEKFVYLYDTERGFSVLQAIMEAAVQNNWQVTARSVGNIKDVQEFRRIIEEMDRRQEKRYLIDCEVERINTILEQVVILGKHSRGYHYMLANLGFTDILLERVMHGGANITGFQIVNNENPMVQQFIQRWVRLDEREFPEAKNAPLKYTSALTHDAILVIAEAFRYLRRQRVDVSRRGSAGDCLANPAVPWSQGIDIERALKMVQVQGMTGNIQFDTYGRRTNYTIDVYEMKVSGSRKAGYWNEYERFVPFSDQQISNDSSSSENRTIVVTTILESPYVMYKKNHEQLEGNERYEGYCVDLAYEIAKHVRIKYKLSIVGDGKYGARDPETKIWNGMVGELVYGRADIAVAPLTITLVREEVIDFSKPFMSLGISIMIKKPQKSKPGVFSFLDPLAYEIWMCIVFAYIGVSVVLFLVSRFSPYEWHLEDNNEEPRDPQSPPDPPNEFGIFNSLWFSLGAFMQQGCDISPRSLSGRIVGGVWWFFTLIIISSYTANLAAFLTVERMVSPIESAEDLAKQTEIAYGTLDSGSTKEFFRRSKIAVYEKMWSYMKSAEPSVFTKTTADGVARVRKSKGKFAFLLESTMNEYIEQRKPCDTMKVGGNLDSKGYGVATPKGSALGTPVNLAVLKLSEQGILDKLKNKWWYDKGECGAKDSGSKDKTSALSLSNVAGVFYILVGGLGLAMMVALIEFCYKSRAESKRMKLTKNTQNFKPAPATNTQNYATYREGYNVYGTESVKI
# T2 sequence (P19490 19-907 isoform P19490-2 limits assumed): as the sequence (P19490 19-907 isoform P19490-2 limits assumed) above
# T7 sequence (P42260 32-908): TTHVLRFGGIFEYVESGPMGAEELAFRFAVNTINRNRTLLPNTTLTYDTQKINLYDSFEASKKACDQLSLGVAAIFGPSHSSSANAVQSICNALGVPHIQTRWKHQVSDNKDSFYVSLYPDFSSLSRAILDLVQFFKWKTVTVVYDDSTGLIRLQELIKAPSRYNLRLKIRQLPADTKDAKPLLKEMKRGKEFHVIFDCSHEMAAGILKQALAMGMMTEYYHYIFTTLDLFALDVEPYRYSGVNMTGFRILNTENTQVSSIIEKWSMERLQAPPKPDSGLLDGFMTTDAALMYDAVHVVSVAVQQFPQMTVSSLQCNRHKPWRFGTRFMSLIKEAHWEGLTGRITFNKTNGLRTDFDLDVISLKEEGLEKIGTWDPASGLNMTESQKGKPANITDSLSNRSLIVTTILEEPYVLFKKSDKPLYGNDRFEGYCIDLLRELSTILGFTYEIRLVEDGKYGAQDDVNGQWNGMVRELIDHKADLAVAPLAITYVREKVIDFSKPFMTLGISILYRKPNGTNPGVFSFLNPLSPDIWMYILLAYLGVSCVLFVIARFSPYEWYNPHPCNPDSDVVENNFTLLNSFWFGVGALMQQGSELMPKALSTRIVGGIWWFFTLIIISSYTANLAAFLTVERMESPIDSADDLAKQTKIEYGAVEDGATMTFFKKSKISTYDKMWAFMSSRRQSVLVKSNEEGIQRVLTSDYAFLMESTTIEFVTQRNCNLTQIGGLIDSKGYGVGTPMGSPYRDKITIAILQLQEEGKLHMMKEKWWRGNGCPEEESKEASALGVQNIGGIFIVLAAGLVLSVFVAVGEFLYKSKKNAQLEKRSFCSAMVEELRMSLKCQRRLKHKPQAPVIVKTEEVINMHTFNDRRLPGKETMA
# T6 sequence (P19491 22-883 isoform P19491-2 limits assumed): as the sequence (P19491 22-883 isoform P19491-2 limits assumed) above
smiles,measurement,setting,value
O=C(O)C[C@@]12O[C@H]3C=CCN[C@H]3C1CN[C@H]2C(=O)O (some centres unmarked) [IKM-159],GluA3 peak amplitude as percent of basal peak amplitude,[1],83±2%
same,reduction in GluA3 peak current amplitude,[1],17±2%
same,GluA1 peak amplitude as percent of basal (glutamate alone) peak,[2],92±3%
same,[3H]AMPA bound as percent of total (specific) binding in absence of competing ligand,"GluA4; 20 nM [3H]-AMPA, 1 h at 4° C.",90±6%
same,bound radioligand ([3H]-AMPA),GluA4; 1 h pre-incubation prior to addition of the radioligand,100%
same,bound radioligand ([3H]-AMPA),GluA4; 2 h incubation with [3H]-AMPA,113%
same,IC50,[3],26 ± 2 µM
same,GluA1/GluA2 peak amplitude as percent of basal peak amplitude,"[3]; 30 μM, 10 mM glutamate",56±5%
same,reduction in GluA1/GluA2 peak current amplitude,"[3]; 30 μM, 10 mM glutamate",44±5%
same,inhibition at 30 µM,"[4]; 50 μM KA, read-out: percent inhibition of kainate-evoked steady state GluA4 currents",37 ± 4%
same,inhibition at 30 µM,"[4]; 100 μM glutamate, 100 μM cyclothiazide, read-out: percent inhibition of steady-state GluA4 currents",30 ± 5%
same,inhibition at 30 µM,"[4]; 500 μM KA, read-out: percent inhibition of kainate-evoked steady state GluA4 currents",21 ± 2%
same,inhibition at 30 µM,"[4]; 500 μM glutamate, read-out: percent inhibition of GluA4 non-equilibrium peak currents",44 ± 8%
same,inhibition at 30 µM,"[4]; 10 mM glutamate, 100 μM cyclothiazide, read-out: percent inhibition of steady-state GluA4 currents",7 ± 2%
same,inhibition at 30 µM,"[4]; 10 mM glutamate, peak current, read-out: reduction from control GluA4 peak glutamate current amplitude (percent inhibition)",40 ± 4%
same,remaining activity at 30 µM,"[4]; HEK293T/17, 30 μM, 10 mM glutamate 100 ms, pre-applied at least one minute, read-out: GluA4 peak current as percent of control amplitude",60 ± 4%
same,IC50,[4]; currents evoked by 10 mM glutamate,60 ± 8 µM
same,[3H]AMPA bound as percent of total (specific) binding in absence of competing ligand,GluA2,107±5%
same,activity at 100 µM,GluK2a,98 ± 4%
same,[3H]AMPA bound as percent of total (specific) binding in absence of competing ligand,GluA1,135±23% and 134±23%
